Reference: patent US7432045B2 (priority 2003, dated 2008)
Where two headings read alike, the source gives them in different places. Peptide text beside a SMILES is read from it.

Assays:
hrR3 virions = assay: Trypsinization of peptide-treated virions; type: cell-based, HSV-1; details: for IC50: 1 h at 37° C.
[1] = system: Influenza virus strain PR8; design: species or system mice; details: mouse, in vivo
[2] = system: Vero, HeLa, CV-1PD, TM-1, DP-9, CEMx174, NIKS, W12E cells; assay: MTS assay, eight cell lines; details: for cytotoxicity to cells (MTS), overall: eight cell lines
trypsin = target: T1, trypsin (Sus scrofa, UniProt P00761); assay: Trypsinization of peptides; details: 0.005 or 0.01% trypsin, 1 h at 37° C.
T1 construct: purchased BioWhittaker 17-160E
Method: Trypsinization of peptides: Peptides dissolved in serum-free DMEM were exposed to 0.005 or 0.01% trypsin for 1 h at 37° C. The trypsin was then inactivated with a 1.3-fold molar excess of soybean trypsin inhibitor and the ability of the peptides to inactivate virions was tested as described above (centrifugation assay). In controls, trypsin was inactivated before it was added to the peptides.
In Panel B, peptides in serum-free medium were pre-treated with active trypsin (open bars) or inactivated trypsin (shaded bars) for 1 h at 37° C. before they were added to virions for 1 h at 37° C. (see Example 1). The treated virions were then pelleted and resuspended in serum-supplemented medium and assayed for infectivity without further trypsinization. The peptide concentrations were as high or higher than those used in Panel A: […] TAT-C, 50 μM bKLA, 200 μM EB and bHOM-9. Trypsin concentrations used in both Panels A and B, were 0.005% (for bKLA, EB and bHOM-9) or 0.01% (for TAT-C and the ‘no peptide’ control).

cornea = assay: In vivo peptide toxicity, cornea; design: species or system BALB/C mice; details: for blepharitis: four times a day for seven days
Method: (i) Cornea: Four-6-week-old female BALB/C mice (Harlan Sprague Dawley, Indianapolis, Ind.) were anesthetized by halothane inhalation (3-5%). A 2.0 μL drop of serum-free 5×DMEM solution containing 6.1 mM EB, 6.1 mM EBX, 7.5 mM TAT-C, 7.5 mM n50,51 TAT-C, 7.5 mM TAT-Cd, or 11.2 mM bHOMd or serum-free DMEM only (control) was then placed on the cornea and the mice were returned to their cages. Each group consisted of 5 mice, except for 11.2 mM bHOMd, and 7.5 mM TAT-Cd, which consisted of 4 mice. Only the right eye in each mouse received the peptide. Treatments were given 4 times per day at least 2 hrs apart for 7 days. On days 1, 5, and 7, the mice were examined microscopically for evidence of blepharitis, punctate keratopathy, dendrite ulceration and geographic ulceration. Damage to the corneal epithelium was assessed by staining with 1.0% […] and examination under a microscope with blue light. Blepharitis was scored: 1+ for noticeable puffy eyelids, 2+ for puffy eyelids with moderate crusting, 3+ for eye 50% swollen shut with severe crusting, and 4+ for eye totally swollen and crusted shut (Brandt et al., 1992). Punctate keratopathy, dendrite ulceration, and geographic ulceration were scored: 1+ for <25% of the cornea involved, 2+ for 25-50% involved, 3+ for 50-75% involved, and 4+ for >75% involved. The mean disease score for each group of mice on each day was calculated by the sum of disease scores in each group on each day divided by the numbers of mice in that group. On day 7, following the last treatment, the mice were sacrificed and the eyes were removed, fixed in 10% formalin, embedded in paraffin, sectioned (5μ each), and stained with hematoxylin and eosin as we have described previously (Brandt et al., 1996). Sections were then examined for evidence of damage to the cornea, sclera, lens, and retina.

T1 sequence (P00761 9-231): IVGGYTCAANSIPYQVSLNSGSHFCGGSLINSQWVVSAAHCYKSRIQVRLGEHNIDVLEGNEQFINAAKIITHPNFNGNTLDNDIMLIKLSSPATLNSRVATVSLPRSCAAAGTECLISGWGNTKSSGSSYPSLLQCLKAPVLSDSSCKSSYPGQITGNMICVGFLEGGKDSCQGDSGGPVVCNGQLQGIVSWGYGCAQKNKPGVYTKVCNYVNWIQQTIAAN

SMILES	effect of trypsin on infectivity of peptide-treated virions (hrR3 virions)	mice protected [1]	cytotoxicity to cells (MTS), overall [2]	effect of trypsinization of the peptide on its antiviral activity (trypsin)	time needed to induce cellular resistance (hrR3; 30 μM peptide, 37° C.)	reversibility of resistance induced at 4° C. by rinsing with 0.5 M NaCl (hrR3; induced at 4° C.)	reversibility of resistance induced at 37° C. by rinsing with 0.5 M NaCl (hrR3; induced at 37° C.)	IC50 (hrR3; read-out: IC50 for rendering cells resistant to subsequent viral infection in the absence of peptide, cells exposed 1 h at 37° C., peptide rinsed off)	IC50 (hrR3; read-out: IC50 of cellular resistance after 8.5 h in peptide-free medium, 8.5 h after first exposure)	IC50 (hrR3; read-out: IC50 of cellular resistance, first exposure, infected immediately after 1 h exposure)	IC50 (hrR3; read-out: IC50 of cellular resistance, second exposure, second exposure 8.5 h after the first)	blepharitis (cornea)	corneal pathology (cornea; mouse, in vivo)	IC50 (hrR3 virions; read-out: IC50 after exposure of treated virus to 0.01% active trypsin)	IC50 (hrR3 virions; read-out: IC50 after exposure of treated virus to inactivated trypsin)	concentration at which not toxic (MTS) ([2]; all cell lines tested)	inhibition after rinsing with 0.5 M NaCl (hrR3; 30 μM peptide 1 h at 4° C.)	infection blocked (hrR3; 30 μM peptide 1 h at 4° C., rinsed with culture medium alone)
CC(C)C[C@H](NC(=O)[C@H](C)NC(=O)[C@H](CC(C)C)NC(=O)[C@H](CC(C)C)NC(=O)[C@@H](NC(=O)[C@H](C)NC(=O)[C@@H]1CCCN1C(=O)[C@H](CC(C)C)NC(=O)[C@H](CC(C)C)NC(=O)[C@H](C)NC(=O)[C@@H](NC(=O)[C@H](C)NC(=O)[C@H](C)NC(=O)[C@H](CCCCN)NC(=O)[C@H](CCCCN)NC(=O)[C@H](CCCNC(=N)N)NC(=O)[C@@H](N)CCCNC(=N)N)C(C)C)C(C)C)C(=O)N[C@@H](CC(C)C)C(=O)N[C@@H](C)C(=O)N1CCC[C@H]1C(=O)O [EB] (H-RRKKAAVALLPAVLLALLAP-OH)	did not have any effect	90%	generally not cytotoxic	completely abolished their antiviral activity	almost instantaneously	only partially reversible	completely irreversible	2.3 µM	> 100 µM	4 µM	2.5 µM	no effect	no evidence of corneal pathology					
N=C(N)NCCC[C@H](NC(=O)CN)C(=O)N[C@@H](CCCCN)C(=O)N[C@@H](CCCCN)C(=O)N[C@@H](CCCNC(=N)N)C(=O)N[C@@H](CCCNC(=N)N)C(=O)N[C@@H](CCC(N)=O)C(=O)N[C@@H](CCCNC(=N)N)C(=O)N[C@@H](CCCNC(=N)N)C(=O)N[C@@H](CCCNC(=N)N)C(=O)N[C@@H](CS)C(=O)O [TAT-C, NH2-GRKKRRQRRRC-COOH]	no effect on virus infectivity	90%	generally not cytotoxic	completely abolished their antiviral activity								mild blepharitis		86 µM	90 µM	> 400 µM	completely reversed	50%
